Data reported in patent publication US20110184018A1, “METHOD FOR TREATING PERIPHERAL NEUROPATHIC PAIN” (LOHOCLA RESEARCH CORPORATION, priority 2005, published 2011).
Read-outs that look alike come from different tables or passages of the source.

Columns and labels:
[1] = Brain levels of DCUKA after intraperitoneal administration; assay type: in vivo; settings: over at least 2 hours
Procedure: While the acid forms of the diarylureido-dihalokynurenic acid compounds are detectable in the brain after intravenous or intraperitoneal injection, “prodrug” versions (e.g., esters) were prepared to enhance transport across the blood-brain barrier. FIG. 6 illustrates the brain levels of DCUKA after administration of DCUKA itself, the DCUK-O-methyl ester and the DCUK-O-ethyl ester. […] Accordingly, ethyl esters of the diarylureido-dihalokynurenate compounds are particularly preferred (e.g., DCUK-OEt).

C57BL/6 mice = assay: Elevated-plus maze (anxiolytic effects); assay type: in vivo, mouse; settings: i.p., about 60 minutes before testing
Procedure: In Panel A, mice were administered (i.p.) the indicated doses of DCUK-OEt about 60 minutes before behavioral testing on the elevated-plus maze. The number of times entered and the time spent in the open arms of the plus-maze were recorded. In Panel B, groups of mice were administered (i.p.) 50 mg/kg DCUK-OEt in an injection vehicle (5% TWEEN 80/0.5% methylcellulose) and tested at the indicated times with comparison to mice injected with vehicle alone. In both panels, mice treated with vehicle alone (i.e., absent the DCUKA compound) were tested 60 minutes after injection of vehicle. A greater percent of time spent in the open arms indicates an anxiolytic action of the drug. Significant differences in the percent time spent on the open arms of the maze are evident at doses as low as 25mg/kg. […]
The anxiolytic effect of the DCUK-OMe was tested in C57BL/6 mice with an elevated-plus maze apparatus. […] A trained observer blind to the treatment conditions scored the number of entries into open arms and the number of entries into closed arms over a 5-minutes period. […] The percentage of open arm entries (open arm entries/total arm entries) was calculated for each animal and used as a measure of the anxiolytic/anxiogenic effects of drug treatment. In addition, the total number of entries made into the […] was recorded as a measure of drug effects on locomotor activity. […]

CB1 receptor [2] = target: T1, CB1 receptor (Homo sapiens, UniProt P21554); assay: cAMP accumulation in HEK293 cells transfected with AC5, D1AR, CB1R; assay type: cell-based
T1 construct: expressed in transfected cells; host or cells: HEK293 cells (ATCC), calcium phosphate transfection
T1 sequence (P21554 whole entry): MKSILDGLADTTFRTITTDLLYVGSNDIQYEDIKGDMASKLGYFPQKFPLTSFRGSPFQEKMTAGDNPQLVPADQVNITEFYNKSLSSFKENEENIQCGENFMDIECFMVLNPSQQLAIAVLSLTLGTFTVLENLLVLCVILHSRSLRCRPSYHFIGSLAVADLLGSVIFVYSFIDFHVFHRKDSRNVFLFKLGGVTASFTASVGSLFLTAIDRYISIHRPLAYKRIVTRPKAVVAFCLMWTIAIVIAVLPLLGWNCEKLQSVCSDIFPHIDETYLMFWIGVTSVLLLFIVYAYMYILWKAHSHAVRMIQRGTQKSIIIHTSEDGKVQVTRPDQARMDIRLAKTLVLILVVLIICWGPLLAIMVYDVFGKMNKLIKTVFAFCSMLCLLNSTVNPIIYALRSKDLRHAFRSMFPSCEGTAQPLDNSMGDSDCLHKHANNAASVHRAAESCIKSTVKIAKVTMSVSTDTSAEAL
Procedure: HEK293 cells were obtained from American Type Culture Collection (Manassas, Va.). Cells were cultured in 225 mL flasks containing 39 mL of MEM containing 10% fetal bovine serum, penicillin (50 μg/mL), streptomycin (50 μg/mL), and neomycin (100 μg/mL). The flasks were maintained in a humidified atmosphere of 95% air and 5% CO2 at about 37° C. Transfection was performed by the method of DNA precipitation with calcium phosphate 1 day after HEK 293 cells were transferred to small flasks (75 mL) at the density of approximately 60 to 80% confluence. Plasmid DNA containing AC5 or AC7 cDNA (11.5 μg), plasmid DNA carrying the human D1A dopamine receptor cDNA (3 μg) and CB1 receptor cDNA (3 μg), and pCMS-EGFP (1 μg) were used for each small flask, which also contained 13 mL of the culture medium. The amount of DNA per flask was adjusted to a total of 26 μg using vector DNA. Transfection efficiency was routinely monitored by observing the expression of enhanced green fluorescent protein (GFP) by an epifluorescence microscope equipped with a filter set (excitation, 480/40 nm; emission, 535/50 nm) and a dichroic mirror (T89002bs; Chroma Technology, Rockingham, Vt.). After transfection, cells were harvested and transferred into 24-well culture plates. The transfected cells were cultured for 1 to 2 days before the cAMP accumulation experiments were carried out.
After labeling and intracellular ATP pool with 3.0 μCi/mL of [2,8-^3H]adenine, cells were incubated in DMEM (0.5 mL/well) without phenol red, buffered to pH 7.1 with 20 mM of 4-(2-hydroxyethyl)-1-piperazineethanesulfonic acid (HEPES) for 30 minutes at 37° C.
To determine the effect of the DCUK-OEt or other compounds on the function of the CB1 receptor, the cells were treated with the phosphodiesterase inhibitor, IBMX (500 μM), for 10 minutes at 37° C., followed by the addition of D1A receptor agonist, dopamine (DA) (1 μM), in the presence of a known CB1 agonist or agonist, plus a CB1 antagonist for 5 minutes. The following agonist and antagonist were used: CB1 receptor agonist, ACEA (10 μM); CB1 receptor antagonist, AM251 (10 μM). In additional reactions, the addition of DA was accompanied by addition of DCUK-OEt (10 μM) or DCUK-OEt together with AM251 (10 μM). In a final set of reactions DCUK-OEt was added with ACEA (10 μM), to assess whether DCUK-OEt acted like a CB1 receptor antagonist. The reactions were terminated by adding 50 μL of 100% (w/v) tricholoroacetic acid. ATP and cAMP were separated through Dowex 50 and neutral alumina columns as is known in the art, and quantified by liquid scintillation counting. [α-^32P]ATP and 8-[^14C]cAMP were added as internal standards to monitor the recovery of ATP and cAMP through column chromatography. Conversion of [^3H] ATP into [^3H]cAMP was calculated as follows: [^3H]cAMP (%)=[^3H]cAMP (cpm)/([^3H]ATP (cpm)+[^3H]cAMP (cpm))·100. [^3H]cAMP (%) values obtained from cells which underwent only the 10-minute IBMX incubation period before the addition of trichloroacetic acid, were used as blanks and these values were subtracted from the values obtained from cells which underwent the 1-minute incubation period with DA in the presence or absence of other agonists/antagonists. Each condition was assayed in triplicate and the whole experimental procedure was repeated 4 times. The ratio of cAMP accumulation was calculated for all treatment groups versus DA treatment group (100%) and the values were averaged among the four batches of experiments.

CB1 receptor [3] = target: T1, CB1 receptor; assay: cAMP accumulation in HEK293 cells transfected with AC7, D1AR, CB1R; assay type: cell-based; settings: dopamine stimulated cAMP
Procedure: HEK293 cells were obtained from American Type Culture Collection (Manassas, Va.). Cells were cultured in 225 mL flasks containing 39 mL of MEM containing 10% fetal bovine serum, penicillin (50 μg/mL), streptomycin (50 μg/mL), and neomycin (100 μg/mL). The flasks were maintained in a humidified atmosphere of 95% air and 5% CO2 at about 37° C. Transfection was performed by the method of DNA precipitation with calcium phosphate 1 day after HEK 293 cells were transferred to small flasks (75 mL) at the density of approximately 60 to 80% confluence. […] Transfection efficiency was routinely monitored by observing the expression of enhanced green fluorescent protein (GFP) by an epifluorescence microscope equipped with a filter set (excitation, 480/40 nm; emission, 535/50 nm) and a dichroic mirror (T89002bs; Chroma Technology, Rockingham, Vt.). […]
To determine the effect of the DCUK-OEt or other compounds on the function of the CB1 receptor, the cells were treated with the phosphodiesterase inhibitor, IBMX (500 μM), for 10 minutes at 37° C., followed by the addition of D1A receptor agonist, dopamine (DA) (1 μM), in the presence of a known CB1 agonist or agonist, plus a CB1 antagonist for 5 minutes. […] ATP and cAMP were separated through Dowex 50 and neutral alumina columns as is known in the art, and quantified by liquid scintillation counting. […]

[4] = target: voltage sensitive sodium channel (neurotoxin receptor Site 2); assay: [3H]BTX binding assay; settings: rat cortical synaptosomes

CCOC(=O)c1cc(NC(=O)N(c2ccccc2)c2ccccc2)c2c(Cl)cc(Cl)cc2n1 [DCUK-OEt, N,N-diphenyl-4-ureido-5,7-dichloro-2-carboxy quinoline ethyl ester]
levels of DCUKA in the brain generated by the ester [1]: significantly improved levels of DCUKA in the brain | lowest dose with significant differences in percent time spent on the open arms (C57BL/6 mice): 25 mg/kg | effect on DA stimulated cAMP production with AM251 added (CB1 receptor [2]; AM251 10 μM): reversed by AM251 | reversal of the effects of ACEA (CB1 receptor [2]; added with ACEA 10 μM): did not reverse the effects of ACEA | effect on DA stimulated cAMP production (CB1 receptor [2]; dopamine 1 μM, compound 10 μM): reduced DA stimulated cAMP production | functional action at CB1 receptor (CB1 receptor [3]): acts like an agonist at the CB1 receptor

O=C(O)c1cc(NC(=O)N(c2ccccc2)c2ccccc2)c2c(Cl)cc(Cl)cc2n1 [DCUKA, N,N-diphenyl-4-ureido-5,7-dichloro-2-carboxyquinoline]
IC50 ([4]; depolarizing conditions (135 mM KCl), read-out: IC50 [3H]BTX binding under depolarizing conditions (value in parentheses)): 30 µM | IC50 ([4]; none = no displacement at 100 μM, read-out: IC50 [3H]BTX binding): 76 µM
